The values below come from US11197857B2, “Combination therapy” (GlaxoSmithKline Intellectual Property Development Limited, priority 2016, dated 2021).

Molecules are shown by their SMILES. Where two headings read alike, the source gives them in different places.

Data set [1] concerns SDMA in a panel of 5 MCL lines. Nature of the data set: SDMA inhibition in MCL panel. The conditions noted are these: read-out: SDMA IC50.
Description: (B) SDMA IC50 values in a panel of MCL lines (EPIZYME data, day 4).
Data set [2] relates to 4 breast cancer lines. Nature of the data set: propidium iodide FACS cell cycle analysis. It is filed as cell-based. Conditions: after 7-10 days of treatment.
Data set [3] concerns MDM4 splicing, SDMA, p53 and p21 in MCL lines. Nature of the data set: MDM4 splicing (RT-PCR) and SDMA/p53/p21 western. The data set is classed as cell-based. The method, then: To understand whether p53 activation is associated with MDM4 isoform switching, MDM4 alternative splicing was analyzed. […] The role of the p53 pathway in the biology of the response of p53 wild-type MCL cells to PRMT5 inhibition is being evaluated.

In data set [4] the test system is SDMA in Z138 cells. Nature of the data set: SDMA ELISA. The data set is classed as cell-based. The conditions noted are these: Homo sapiens. A general note: In an ELISA, binding on a coated surface is turned into a signal by an enzyme label.
Data set [5] deals with 19 enzymes: Type I and Type II PRMTs and lysine methyltransferases (KMTs). Nature of the data set: methyltransferase selectivity panel. It is filed as biochemical. The conditions noted are these: for selectivity over other methyltransferases: PRMT5 tool compounds. The source says: FIG. 31: Phylogenetic tree highlighting the methyltransferases tested in the selectivity panel. […] PRMT9 is shown for relationship purposes only within the family tree and was not evaluated in the panel. Figure adapted from Richon V M. et al.
PRMT9/FBXO11, which is the other Type II PRMT and the only PRMT to lack the THW loop, was not included due to the lack of a functional enzyme assay.

The subject of data set [6] is Maver-1 MCL xenograft model. Nature of the data set: Maver-1 xenograft efficacy and PD. It is filed as in vivo. The conditions noted are these: for TGI: day 18. The method, then:
(§1) B. Quantified SDMA western data from tumors harvested at the end of the efficacy study (3 hours post last dose).

For data set [7], the system named is panel of cancer cell lines. Nature of the data set: cells. The data set is classed as cell-based. The text has this:
DLBCL-diffuse large B-cell lymphoma, GBM-glioblastoma, MCL-mantle cell lymphoma, MM-multiple myeloma
The cell lines were selected to represent tumor types where PRMT5 activity has been reported to regulate key pathways and/or cell growth and survival (such as lymphoma and MCL, glioma, breast and lung cancer lines).

Data set [8] relates to gene expression in Z138 cells. As to the kind of experiment: qPCR gene expression (11 genes). It is filed as cell-based. Conditions: Homo sapiens, Z-138, 96 h, day 4.
Data set [9] has as its system MCL cell lines. Nature of the data set: 6-day growth/death CTG assay in MCL cell lines. The conditions noted are these: for IC50: read-out: gIC50. The data set is classed as cell-based.
Data set [10] relates to GBM cell lines. As to the kind of experiment: 2D 6-day growth/death CTG assay. The data set is classed as cell-based.
For data set [11], the system named is MDA-MB-468 triple negative breast cancer xenograft model. As to the kind of experiment: MDA-MB-468 xenograft efficacy and PK/PD. It is filed as in vivo. The procedure:
Next, the efficacy of PRMT5 inhibition was evaluated in in vivo models of breast cancer.

Data set [12] deals with Z138 MCL cells. As to the kind of experiment: 6-day growth/death assay. The data set is classed as cell-based. Conditions: Z138, 6-day.
The subject of data set [13] is Z-138 MCL xenograft model. Nature of the data set: Z138 xenograft 21-day efficacy and PD. The data set is classed as in vivo. Conditions: for TGI: 21-day. The method, then: as §1
Data set [14] concerns breast cancer cell lines (SKBR3, MDA-MB-468, MCF-7, ZR-75-1). As to the kind of experiment: longer-term (10-12 day) growth/death assay. Conditions: SKBR3, MDA-MB-468 and MCF-7 cells, prolonged exposure (7-10 days). It is filed as cell-based.
Data set [15] deals with PRMT5/MEP50 (Homo sapiens, UniProt O14744). Nature of the data set: PRMT5/MEP50 radioactive assay (3H transfer from SAM to H4 peptide / protein substrate). It is filed as biochemical. Conditions: close analogs of Compound C.
Data set [16] deals with patient-derived tumor models and cell lines (n=73). As to the kind of experiment: soft agar 3D colony formation assay. It is filed as cell-based. Conditions: n=73 models. The source says: FIG. 35: Compound E relative IC50 values from 8-13 day colony formation assay performed in patient-derived and cell line tumor models.
Tumor types with the lowest median IC50 values were large cell lung cancer, breast, kidney and glioma.

For data set [17], the system named is 240 cancer cell lines. Nature of the data set: 10-day 2D growth assay, 240 cell lines. The data set is classed as cell-based. The procedure: FIG. 34: Compound B gIC50 values in cancer cell lines (n=240) from 10 day 2D growth assay. ALL-acute lymphoblastic leukemia, AML-acute myeloid leukemia, CML-chronic myeloid leukemia, DLBCL-diffuse large B-cell lymphoma, HL-Hodgkin lymphoma, HN-head and neck cancer, MM-multiple myeloma, NHL-non-Hodgkin lymphoma, NSCLC-non-small cell lung cancer, PEL-primary effusion lymphoma, SCLC-small cell lung cancer, TCL-T-cell lymphoma.
The tumor types with median gIC50<100 nM were acute myeloid leukemia (AML), chronic myelogenous leukemia (CML), Hodgkin's Lymphoma (HL), multiple myeloma (MM), breast, glioma, kidney, melanoma, and ovarian cancer.

Chain of PRMT5/MEP50 (O14744 whole entry): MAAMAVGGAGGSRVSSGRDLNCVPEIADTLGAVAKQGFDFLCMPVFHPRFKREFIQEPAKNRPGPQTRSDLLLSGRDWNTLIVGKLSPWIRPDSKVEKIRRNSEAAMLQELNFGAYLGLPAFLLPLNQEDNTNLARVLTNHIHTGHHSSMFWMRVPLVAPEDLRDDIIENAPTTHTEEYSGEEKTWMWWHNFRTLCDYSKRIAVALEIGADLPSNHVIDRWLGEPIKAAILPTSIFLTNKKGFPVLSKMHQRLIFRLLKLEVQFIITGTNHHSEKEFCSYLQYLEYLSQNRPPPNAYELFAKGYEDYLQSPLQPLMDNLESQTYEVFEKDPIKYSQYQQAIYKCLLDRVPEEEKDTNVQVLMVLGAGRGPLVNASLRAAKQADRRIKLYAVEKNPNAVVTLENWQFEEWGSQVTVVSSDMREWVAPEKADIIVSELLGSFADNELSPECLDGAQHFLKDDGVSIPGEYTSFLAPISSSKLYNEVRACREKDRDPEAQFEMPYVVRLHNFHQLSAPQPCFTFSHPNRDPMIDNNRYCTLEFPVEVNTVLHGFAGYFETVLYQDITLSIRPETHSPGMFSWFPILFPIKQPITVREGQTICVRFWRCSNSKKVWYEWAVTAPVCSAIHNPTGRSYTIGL
Chain of PRMT5/MEP50 (Q9BQA1 whole entry partner): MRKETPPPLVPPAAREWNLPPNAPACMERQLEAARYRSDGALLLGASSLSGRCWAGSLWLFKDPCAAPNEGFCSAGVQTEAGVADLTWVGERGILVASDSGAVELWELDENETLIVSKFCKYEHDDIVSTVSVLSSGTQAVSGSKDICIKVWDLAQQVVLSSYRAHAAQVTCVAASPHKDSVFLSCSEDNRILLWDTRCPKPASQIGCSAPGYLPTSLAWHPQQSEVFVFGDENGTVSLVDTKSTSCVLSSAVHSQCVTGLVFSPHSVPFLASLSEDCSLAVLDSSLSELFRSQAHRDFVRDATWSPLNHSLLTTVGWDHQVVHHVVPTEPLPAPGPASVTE

For `CC(=O)N1CCC(Nc2cc(C(=O)NC[C@H](O)CN3CCc4ccccc4C3)ncn2)CC1` [Compound C], the IC50 is 0.3 to 14 nM in data set [1]; 4.79 nM in data set [4] (Z-138, 72 h, day 3); greater than 40000 nM in [5] (any of the 19 enzymes); less than 1000 nM in data set [7] (majority of cell lines tested, read-out: gIC50); greater than 1000 nM in data set [9] (1 cell line of the MCL panel); no more than 100 nM in [9] (2 lines of the MCL panel). For the same compound, the IC50 in data set [9] (3 cell lines of the MCL panel) was less than 10 nM; in [10] (144 h, GBM cell lines, 6-day, read-out: gIC50), 40 to 22000 nM; in data set [12] (Homo sapiens, Z-138, 144 h, read-out: gIC50), 2.7 nM. The “breast cancer lines with induction of cell death (increase in <2N)” value in [2] is 3 out of 4. For the same compound, the MDM4 isoform switching result in data set [3] (Z138 and JVM-2 cells (both p53 wild-type)) is on record as “induced MDM4 isoform switching”. Besides, the “concentrations at which SDMA levels were undetectable by Western blot” value in data set [3] (Z138 cells) was “above 8 nM”. For the same compound, in data set [3] (Z138 cells), the “concentrations at which changes in MDM4 splicing and p53/p21 protein expression were apparent” value was “above 8 nM”. Besides, the “p53 and p21 expression” value in [3] (Z138 cells, 200 nM Compound C) is “increased p53 and p21 expression to similar levels”. Further, the EC50 in [4] (Z-138, 24 h, day 1) is 7.3 nM; in [4] (Z-138, 72 h, day 3), 2.35 nM; in data set [8], 22 to 332 nM. Further, the concentration for an effect of 90% (EC90) in data set [4] (Z-138, 72 h, day 3, read-out: SDMA EC90 (complete inhibition above)) is 19 nM. In addition, the “potency for any other tested enzyme (FIG. 31)” value in data set [5] (phylogenetic tree symbol class) is recorded as > 10^−5 M. The “reduction of the methyl mark (SDMA, tumors)” value in [6] (all dose groups) is reported as 80-95%. Besides, the TGI is 50% in [6] (lowest dose group); greater than 90% in data set [6] (top dose groups); 83% in [11] (100 mg/kg BID); 40% in data set [13] (lowest dose group, 25 mg/kg BID); greater than 90% in data set [13] (top 100 mg/kg BID dose group). The gIC50 result in data set [7] (most sensitive lymphoma lines (MCL and DLBCL)) was “single digit nM range”; in data set [9] (Z-138, Maver-1 and JVM-2), “low”. Moreover, in data set [9] (Mino, Jeko-1 (ibrutinib sensitive lines)), the sensitivity entry is listed as “only moderately sensitive”. For the same compound, the nature of response result is reported as “largely cytostatic” in data set [10] (with the exception of the SF539 cell line) and “cytotoxic response” in data set [14]. The figures for the SDMA inhibition result in [11] (100 mg/kg BID) and in data set [11] (100 mg/kg QD) were “greater than 90%” and “less than 80%”, respectively. In [11] (100 mg/kg QD), the efficacy result is “not efficacious”. The gIC95 in data set [12] is listed as 82 nM. For the same compound, the gIC100 in [12] amounted to 880 nM. For the same compound, the “reduction of the methyl mark (SDMA western, tumors)” value is listed as “greater than 70%” in data set [13] (all dose groups) and greater than 98% in data set [13] (top dose groups). In data set [13] (all groups in all efficacy studies presented), the body weight loss result is on record as “no body weight loss”.
With `O=C(NC[C@H](O)CN1CCc2ccccc2C1)c1cc(NC2COC2)ncn1` [Compound E], the “selectivity over other methyltransferases” value (from here on “selectivity”) in data set [5] is on record as “Selectivity for PRMT5/MEP50 over the other methyltransferases”. Besides, the “inhibitory potency compared with Compound C” value in data set [15] is reported as “similar”. Also, the “share of models with relative growth IC50 values below 1 μM” value in [16] is reported as 37%.
As to `CC(=O)N1CCC(Nc2cc(C(=O)NC[C@H](O)CN3CCc4ccccc4C3)ccn2)CC1` [Compound F], in data set [5], the “selectivity” value is reported as “Selectivity for PRMT5/MEP50 over the other methyltransferases”. The “inhibitory potency compared with Compound C” value in data set [15] is “similar”.
Regarding `O=C(NC[C@H](O)CN1CCc2ccccc2C1)c1ccnc(NC2CCC2)c1` [Compound B], the “selectivity” value in [5] was “Selectivity for PRMT5/MEP50 over the other methyltransferases”. Moreover, the “inhibitory potency compared with Compound C” value in data set [15] is “similar”. The IC50 is less than 100 nM in [17] (AML, CML, HL, MM, breast, glioma, kidney, melanoma, ovarian cancer, read-out: median gIC50) and less than 1000 nM in [17] (majority of cell lines, read-out: gIC50). Further, the nature of response entry in [14] is “cytotoxic response”.
For `COc1ccc(C2=N[C@@H](c3ccc(Cl)cc3)[C@@H](c3ccc(Cl)cc3)N2C(=O)N2CCNC(=O)C2)c(OC(C)C)c1` [Nutlin-3, reference compound], the “p53 and p21 expression” value in data set [3] (Z138 cells, 5 μM MDM2 inhibitor (Nutlin-3)) is “increased p53 and p21 expression to similar levels”.

What is called EC50 is the concentration that produces a half-maximal response. A lower EC50 goes with an effect from little substance. For orientation: EC90 means the point of the concentration-response curve where the effect stands at 90%. What is called TGI is the reduction of tumour growth relative to the control group.
